Experimental data from patent US20200131156A1, “ARYLSULFONYLPYROLECARBOXAMIDE DERIVATIVES AS Kv3 POTASSIUM CHANNEL ACTIVATORS” (H. Lundbeck A/S, priority 2018, published 2020).

How the values were obtained:
[1] = Unbound fraction in brain (mouse PK table footnote); type: in vitro ADME
human Kv3.2 = target: T1, human Kv3.2 (Homo sapiens, UniProt Q96PR1); experiment: Manual patch clamp electrophysiology, HEK-293 cells stably expressing human Kv3.2; type: cell-based; details: for hKv3.2 ECΔ30% increase: concentration increasing current by 30% at the −10 mV step; for hKv3.2 ECΔ5 mV: concentration that shifts activation threshold by 5 mV
T1 construct: expressed in transfected cells
T1 sequence (Q96PR1 1-638): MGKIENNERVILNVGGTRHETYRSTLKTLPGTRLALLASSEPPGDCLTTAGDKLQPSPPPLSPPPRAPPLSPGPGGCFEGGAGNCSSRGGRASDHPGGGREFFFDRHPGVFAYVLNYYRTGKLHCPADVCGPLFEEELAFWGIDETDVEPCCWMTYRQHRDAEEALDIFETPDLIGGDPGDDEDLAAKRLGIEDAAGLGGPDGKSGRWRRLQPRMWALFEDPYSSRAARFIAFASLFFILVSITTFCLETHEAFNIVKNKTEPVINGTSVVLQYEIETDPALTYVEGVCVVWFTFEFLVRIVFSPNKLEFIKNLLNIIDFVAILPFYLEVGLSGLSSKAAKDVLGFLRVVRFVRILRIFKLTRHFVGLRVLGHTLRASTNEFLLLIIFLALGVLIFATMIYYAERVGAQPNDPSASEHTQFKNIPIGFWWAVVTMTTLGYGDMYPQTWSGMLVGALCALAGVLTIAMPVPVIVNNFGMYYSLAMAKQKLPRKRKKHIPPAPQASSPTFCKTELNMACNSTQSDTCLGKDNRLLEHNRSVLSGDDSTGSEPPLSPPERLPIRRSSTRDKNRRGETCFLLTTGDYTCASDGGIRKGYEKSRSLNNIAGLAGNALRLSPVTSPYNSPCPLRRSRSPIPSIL
Procedure: (§1) Manual Patch Clamp Electrophysiological Evaluation, hKv3.1, hKv3.2, hKv3.3, hKv3.4:
(§2) HEK-293 cells stably expressing human Kv3.1b, Kv3.2, Kv3.3 or Kv3.4 were used for the experiments.
(§3) Kv3.1b, Kv3.2: Cells were cultured in MEM medium supplemented with 10% Fetal Bovine Serum, 1% Penicillin/Streptomycin, 2 mM glutamine and 0.6 mg/mL geneticin. Cells were grown to 80-90% confluency at 37° C. and 5% CO2 Kv3.3 or Kv3.4: Cells were cultured in DMEM medium supplemented with 10% Fetal Bovine Serum, 500 ug/mL Geneticidin and 1% Penicillin/Streptomycin. Cells were grown to 80-90% confluency at 37° C. and 5% CO2.
(§4) On the day of the experiment the cells were detached by TrypLE and resuspended in culture medium. Cells were centrifuged, media removed and the cells were resuspended in extracellular buffer containing (in mM): 130 Na-gluconate, 20 NaCl, 4 KCl, 1 MgCl2, 1.8 CaCl2, 10 HEPES and 5 glucose, pH 7.3 adjusted with NaOH, 310-320 mOsm
(§5) Patch-clamp recordings were performed using a manual patch-clamp system (Axon Multiclamp 700B, Digidata 1440, pCLAMP 10, Molecular Devices Corporation) with a fast perfusion system (RSC-160 Rapid solution Changer, BioLogic). Whole-cell recordings were carried out using an intracellular solution containing (in mM): 100 K-gluconate, 40 KCl, 10 HEPES, 1 EGTA, 1 MgCl2, pH 7.2 adjusted with KOH, 290-300 mOsm. Cell membrane potentials were held at −80 mV and current voltage-relationship was generated by voltage steps (50 ms duration) from −100 mV to +10 mV (in 10 mV increments) and then back to −100 mV for 50 ms, with inter-sweep interval of 3 s. The peak current amplitude of −10 mV was monitored until stable (<5% change) by using one step voltage protocol. One IV protocol was run as baseline, then compound perfusion was stared and peak current stability was monitored with single step protocol prior to the IV protocol. Single concentrations were measured per cell. Acceptable cells had seal resistance >500 MOhm, Access resistance <10 MOhm, and leak current <200 pA.
(§6) Data analysis was performed using Clampfit (V10.2) in combination with Microsoft Excel™ (Redmond, Wash., USA). Current voltage relationships were plotted from the peak current (baseline subtracted) at the individual voltage steps normalized to the vehicle addition at 10 mV. The voltage threshold for channel activation was defined as 5% activation of the peak current at 10 mV in presence of vehicle. […] The concentration needed to shift the threshold 5 mV was readout from this curve (ECΔ5 mV), as well as the ability to increase the peak current at the −10 mV step (EC30% increase). […]

human Kv3.3 = target: T2, human Kv3.3 (Homo sapiens, UniProt Q14003); experiment: Manual patch clamp electrophysiology, HEK-293 cells stably expressing human Kv3.3; type: cell-based; details: for hKv3.3 ECΔ30% increase: concentration increasing current by 30% at the −10 mV step; for hKv3.3 ECΔ5 mV: concentration that shifts activation threshold by 5 mV
T2 construct: expressed in transfected cells
T2 sequence (Q14003 1-757): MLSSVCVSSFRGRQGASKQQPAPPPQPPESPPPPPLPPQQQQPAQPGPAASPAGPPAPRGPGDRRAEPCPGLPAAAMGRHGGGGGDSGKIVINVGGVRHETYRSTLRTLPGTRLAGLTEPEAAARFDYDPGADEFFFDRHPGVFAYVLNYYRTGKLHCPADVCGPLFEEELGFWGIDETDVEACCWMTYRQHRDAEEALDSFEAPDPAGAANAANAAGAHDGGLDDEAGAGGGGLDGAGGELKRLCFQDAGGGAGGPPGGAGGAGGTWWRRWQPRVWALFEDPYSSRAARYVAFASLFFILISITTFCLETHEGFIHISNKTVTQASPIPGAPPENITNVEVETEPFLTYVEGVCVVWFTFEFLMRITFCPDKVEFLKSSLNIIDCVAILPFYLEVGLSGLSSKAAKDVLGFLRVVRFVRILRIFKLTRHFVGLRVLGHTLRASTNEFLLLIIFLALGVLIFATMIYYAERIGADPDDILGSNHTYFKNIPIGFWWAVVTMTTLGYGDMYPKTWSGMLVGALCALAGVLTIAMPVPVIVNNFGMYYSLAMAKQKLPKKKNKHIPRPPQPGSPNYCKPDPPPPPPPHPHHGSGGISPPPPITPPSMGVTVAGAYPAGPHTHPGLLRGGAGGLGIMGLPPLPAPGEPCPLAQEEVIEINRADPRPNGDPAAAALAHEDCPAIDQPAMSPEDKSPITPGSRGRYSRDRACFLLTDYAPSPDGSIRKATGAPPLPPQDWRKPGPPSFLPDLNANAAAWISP
Procedure: as §1, §2, §3, §4, §5, §6

SMILES | fraction unbound [1] | hKv3.2 ECΔ30% increase (human Kv3.2) [µM] | hKv3.2 ECΔ5 mV (human Kv3.2) [µM] | hKv3.3 ECΔ30% increase (human Kv3.3) [µM] | hKv3.3 ECΔ5 mV (human Kv3.3) [µM]
Cc1ccc(S(=O)(=O)n2ccc(C(=O)NCc3ncco3)c2)cc1 [Compound 86, 1-(4-methylbenzene-1-sulfonyl)-N-[(1,3-oxazol-2-yl)methyl]-1H-pyrrole-3-carboxamide] | 0.11 | >30 | 6.0 | >30 | 4.9
Cc1cnc(CNC(=O)c2ccn(S(=O)(=O)c3ccc(F)cc3C)c2)cn1 [Compound 90, 1-(4-fluoro-2-methylbenzene-1-sulfonyl)-N-[(5-methylpyrazin-2-yl)methyl]-1H-pyrrole-3-carboxamide] | 0.1 | 8.2 | 1.5 | 2.7 | 2.7
